Our source for the GI50 and TGI values is PubChem BioAssay (NCI).

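Cells were grown in 96-well plates and exposed to each compound for 48 hours at five concentrations; endpoints were interpolated linearly between bracketing concentrations, or set to the highest concentration if not reached. Here, GI50 denotes the concentration required for 50% inhibition of growth. Definition used: TGI = concentration required for complete inhibition of growth.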

Holding throughout (assay): NCI tumour cell line growth inhibition, 48 h
Test [1] has as its system NCI-H460 lung.
Test [2] deals with M14 melanoma.
Test [3] has as its system EKVX NSCLC.
Test [4] deals with SK-MEL-2 melanoma.
For test [5], the system named is CAKI-1 renal.
The test system of test [6] is NCI-H23 lung.
Test [7] deals with SF-539 CNS.
The test system of test [8] is NCI-H522 lung.
Test [9] concerns TK-10 renal.
Test [10] has as its system NCI/ADR-RES ovarian.

Turning to `C[C@]12CC[C@@H]3c4ccc(O)cc4CC[C@H]3[C@@H]1Cc1cnc(N)nc12`, the GI50 was 9.95 µM in test [1]; 18.2 µM in test [2]; 9.47 µM in test [3]; 26.9 µM in test [4]; 23.8 µM in [5]; 18.1 µM in test [6]. The GI50 in test [7] is 14.8 µM; in test [8], 17.3 µM; in test [9], 18.9 µM; in test [10] it was 17.7 µM. Moreover, the TGI in [1] is 24.9 µM; in [2], 36.4 µM; in [3] it was 34.9 µM; in test [4] it was over 100 µM; in test [5] it was 49.8 µM; in [6] it was 41 µM. Further, the TGI in test [7] was found to be 30.5 µM; in [8] it was 41.2 µM; in [9], 42.7 µM; in [10], 41.4 µM.
Turning to `C#CCNCCN1C(=O)c2ccc3c4c(ccc(c24)C1=O)C(=O)N(CCNCC#C)C3=O`, the GI50 in test [1] is 1.86 µM; in [2] it was 5.52 µM; in test [3], 5.93 µM; in test [4], 6.57 µM; in [5], 5.05 µM; in test [6] it was 3.56 µM. The GI50 was 4.76 µM in [7], 3.98 µM in [8], 7.38 µM in [9] and 4.07 µM in test [10]. Further, the TGI in test [1] came to 9.68 µM; in [2], 12.6 µM; in test [3], 13.6 µM; in [4] it was 14.1 µM; in test [5] it was 15.6 µM; in test [6], 15.6 µM. For the same molecule, the TGI came to 11.2 µM in test [7], 10.9 µM in test [8], 23.8 µM in test [9] and 24.4 µM in test [10].
With `O=C1c2ccc3c4c(ccc(c24)C(=O)N1CCCNCc1ccccc1Cl)C(=O)N(CCCNCc1ccccc1Cl)C3=O`, the GI50 is 0.212 µM in test [1]; 0.2 µM in test [2]; 0.481 µM in [3]; 0.415 µM in test [4]; 0.317 µM in test [5]; 0.217 µM in test [6]. In addition, the GI50 is 0.669 µM in [7], 0.293 µM in test [8], 0.179 µM in test [9] and 0.142 µM in [10]. Further, the TGI in test [1] amounted to 0.817 µM; in test [2], 0.685 µM; in test [3], 1.16 µM; in test [4], 1.28 µM; in test [5], 1.46 µM; in test [6] it was 0.86 µM. The TGI in [7] was found to be 1.38 µM; in test [8], 0.974 µM; in test [9] it was 0.724 µM; in test [10] it was 0.456 µM.
On to `N#CSCc1ccc(Cl)c(CSC#N)c1`, for which the GI50 was 0.807 µM in [1]; 0.0759 µM in [2]; 20.7 µM in test [3]; 16.2 µM in test [4]; 0.169 µM in [5]; 0.913 µM in test [6]. The GI50 in test [7] was 0.117 µM; in [8], 0.0816 µM; in test [9], 14.5 µM; in test [10], 1.9 µM. Further, the TGI in [1] is 12.6 µM; in [2] it was 14.8 µM; in [3], over 80.3 µM; in [4], 73 µM; in [5], 21.7 µM; in test [6], 44.5 µM. Besides, the TGI is 16.6 µM in test [7], 9.06 µM in test [8], 46.6 µM in [9] and over 60.9 µM in test [10].
For the molecule `CN1CCc2[nH]nc(-c3n[nH]c4c3CN(C)CC4)c2C1`, the TGI in [1], in test [2], in test [3], in test [4], in test [5] and in test [6] was over 100 µM throughout. Further, the TGI in [7], in test [8], in test [9] and in test [10] was over 100 µM in each case.
As to `CC1=C(CCC(C)NCc2ccc(OCCCN3CCCCC3)cc2)C(C)(C)CCC1` (stereo not given), the GI50 in test [1] was 1.53 µM; in test [2] it was 0.214 µM; in test [3] it was 1.61 µM; in test [4] it was 1.49 µM; in test [5] it was 1.82 µM; in test [6] it was 1.73 µM. In addition, the GI50 in test [7] is 1.64 µM; in [8], 1.45 µM; in test [9] it was 1.69 µM; in test [10], 1.72 µM. Also, the TGI in [1] is 3.28 µM; in test [2] it was 0.468 µM; in test [3], 3.94 µM; in test [4] it was 3.08 µM; in test [5], 3.92 µM; in [6], 3.82 µM. Besides, the TGI in [7] came to 3.22 µM; in test [8], 3.21 µM; in test [9], 3.19 µM; in [10], 3.47 µM.
As for `COC(=O)C1=C(C)NC(C)=C(C(=O)OCC(C)C)C1c1ccccc1[N+](=O)[O-]` (stereo not given), the GI50 in test [1] was 3.6 µM; in test [2], 2.9 µM; in test [3] it was 8.06 µM; in test [4], 4 µM; in [5], 2.29 µM; in test [6], 3.47 µM. Moreover, the GI50 in test [7] was 5.3 µM; in [8] it was 2.4 µM; in test [9], 4.11 µM; in test [10], 2.07 µM. Moreover, the TGI was determined as 15.2 µM in test [1]; 8.21 µM in test [2]; 32.7 µM in [3]; 13.6 µM in test [4]; 11 µM in test [5]; 16.5 µM in test [6]. In addition, the TGI turned out to be 16.8 µM in test [7], 10.7 µM in test [8], 13 µM in test [9] and 16.8 µM in [10].
